From ChEMBL document CHEMBL1201862, “PubChem BioAssay data set” (2004)
The source made the active and inactive calls.

Columns and labels:
[1] = target: Dual specificity protein phosphatase 6 (Rattus norvegicus, UniProt Q64346); assay: MKP-3 phosphatase inhibitors, primary screen, biochemical, rat enzyme, in vitro (AID 425)
[2] = target: Serine/threonine-protein phosphatase PP1-alpha catalytic subunit (Homo sapiens, UniProt P62136); assay: PP1 phosphatase inhibitors, dose response, biochemical, fluorescence (AID 2394)
Serine/threonine-protein phosphatase PP1-alpha catalytic subunit, sequence (P62136 whole entry): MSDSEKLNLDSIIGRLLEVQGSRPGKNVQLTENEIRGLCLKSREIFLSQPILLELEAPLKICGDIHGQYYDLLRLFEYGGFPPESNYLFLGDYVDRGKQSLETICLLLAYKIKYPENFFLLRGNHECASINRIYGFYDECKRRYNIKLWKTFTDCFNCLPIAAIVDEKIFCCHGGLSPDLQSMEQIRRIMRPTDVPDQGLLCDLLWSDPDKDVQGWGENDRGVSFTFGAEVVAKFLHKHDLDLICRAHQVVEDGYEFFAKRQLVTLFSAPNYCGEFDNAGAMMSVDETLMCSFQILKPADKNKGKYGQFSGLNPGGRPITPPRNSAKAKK

[3] = target: Serine/threonine-protein phosphatase (Homo sapiens, UniProt Q9BPW0); assay: PP5 phosphatase inhibitors, dose response, biochemical, fluorescence (AID 2395)
Protein Rev = target: T1, Protein Rev (Human immunodeficiency virus type 1 group M subtype B (isolate HXB2)(HIV-1), UniProt P04618); assay: inhibitors of Rev binding to RRE RNA, dose response, biochemical, fluorescence polarization, HIV-1 (AID 434976); parameters: species or system Human immunodeficiency virus 1
T1 sequence (P04618 whole entry): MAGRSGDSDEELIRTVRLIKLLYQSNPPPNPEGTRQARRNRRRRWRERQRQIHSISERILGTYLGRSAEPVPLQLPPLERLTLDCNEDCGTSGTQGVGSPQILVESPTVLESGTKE

[4] = target: T2, Female germline-specific tumor suppressor gld-1 (Caenorhabditis elegans, UniProt Q17339); assay: inhibitors of GLD-1 binding to TGE RNA, dose response, biochemical, fluorescence polarization, C. elegans (AID 2802);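 note: fluorescence polarization of labeled TGE RNA bound by purified gld-1 protein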
T2 sequence (Q17339 whole entry): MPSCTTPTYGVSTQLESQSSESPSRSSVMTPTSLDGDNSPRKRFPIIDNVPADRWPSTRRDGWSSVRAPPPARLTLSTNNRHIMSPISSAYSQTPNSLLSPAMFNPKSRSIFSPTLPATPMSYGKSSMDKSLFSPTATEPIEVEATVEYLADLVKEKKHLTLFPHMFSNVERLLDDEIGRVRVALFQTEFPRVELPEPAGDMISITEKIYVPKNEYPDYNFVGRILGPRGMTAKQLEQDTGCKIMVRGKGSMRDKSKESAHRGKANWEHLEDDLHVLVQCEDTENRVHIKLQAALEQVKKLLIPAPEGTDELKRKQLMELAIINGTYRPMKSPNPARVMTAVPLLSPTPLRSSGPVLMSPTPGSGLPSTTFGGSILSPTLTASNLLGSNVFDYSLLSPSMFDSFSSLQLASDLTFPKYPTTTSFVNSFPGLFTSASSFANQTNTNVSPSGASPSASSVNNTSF

14-3-3 protein gamma = 14-3-3 protein gamma (Homo sapiens, UniProt P61981); assay: modulators of 14-3-3 gamma client binding – dose response (AID 711); type: functional
14-3-3 protein gamma, sequence (P61981 whole entry): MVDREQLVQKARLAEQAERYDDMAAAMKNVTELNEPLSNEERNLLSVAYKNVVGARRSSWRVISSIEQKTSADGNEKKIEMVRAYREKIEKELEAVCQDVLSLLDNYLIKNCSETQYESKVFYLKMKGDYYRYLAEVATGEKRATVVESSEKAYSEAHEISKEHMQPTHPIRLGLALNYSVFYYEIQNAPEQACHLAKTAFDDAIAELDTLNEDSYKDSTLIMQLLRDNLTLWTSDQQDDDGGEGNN

[5] = target: T3, Polyadenylate-binding protein 1 (Homo sapiens, UniProt P11940); assay: PABP1 MLLE–PAM2 interaction inhibitors, dose response, miRNA deadenylation inhibitor project, biochemical, fluorescence polarization, Cy5-PAM2 peptide, secondary (AID 602260); type: functional; conditions: read-out: IC50_Mean
T3 sequence (P11940 whole entry): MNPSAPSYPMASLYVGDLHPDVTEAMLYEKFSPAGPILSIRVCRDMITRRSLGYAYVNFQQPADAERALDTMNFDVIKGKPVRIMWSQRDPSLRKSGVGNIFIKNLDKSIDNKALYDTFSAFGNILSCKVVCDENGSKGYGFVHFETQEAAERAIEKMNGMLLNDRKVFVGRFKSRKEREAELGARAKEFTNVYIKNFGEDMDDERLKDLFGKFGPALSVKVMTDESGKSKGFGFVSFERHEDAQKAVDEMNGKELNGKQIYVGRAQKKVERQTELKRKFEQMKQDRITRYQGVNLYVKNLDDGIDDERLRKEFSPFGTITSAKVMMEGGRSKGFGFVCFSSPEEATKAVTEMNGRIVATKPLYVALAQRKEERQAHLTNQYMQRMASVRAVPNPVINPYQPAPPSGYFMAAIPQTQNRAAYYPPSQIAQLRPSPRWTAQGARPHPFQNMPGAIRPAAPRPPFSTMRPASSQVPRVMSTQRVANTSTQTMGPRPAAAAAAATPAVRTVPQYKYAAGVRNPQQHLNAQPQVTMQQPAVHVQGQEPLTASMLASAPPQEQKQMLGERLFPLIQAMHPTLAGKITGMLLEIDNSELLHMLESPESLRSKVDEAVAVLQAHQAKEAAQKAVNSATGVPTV

[6] = target: T3, Polyadenylate-binding protein 1; assay: PABP1 MLLE–PAM2 binding inhibitor potency, dose response, biochemical, fluorescence polarization, FITC-PAM2 peptide (AID 602259); type: functional; conditions: read-out: IC50_Mean
[7] = target: Long-chain-fatty-acid--AMP ligase FadD28 (Mycobacterium tuberculosis, UniProt P9WQ59); assay: Fluorescence polarization aasay to screen for inhibitors that compete for the binding of FadD28 to a bisubstrate Measured in Biochemical System Using Plate Reader - 2147-01_Inhibitor_Dose_CherryPick_Activity.; type: functional, Mycobacterium tuberculosis H37Rv
Long-chain-fatty-acid--AMP ligase FadD28, sequence (P9WQ59 whole entry): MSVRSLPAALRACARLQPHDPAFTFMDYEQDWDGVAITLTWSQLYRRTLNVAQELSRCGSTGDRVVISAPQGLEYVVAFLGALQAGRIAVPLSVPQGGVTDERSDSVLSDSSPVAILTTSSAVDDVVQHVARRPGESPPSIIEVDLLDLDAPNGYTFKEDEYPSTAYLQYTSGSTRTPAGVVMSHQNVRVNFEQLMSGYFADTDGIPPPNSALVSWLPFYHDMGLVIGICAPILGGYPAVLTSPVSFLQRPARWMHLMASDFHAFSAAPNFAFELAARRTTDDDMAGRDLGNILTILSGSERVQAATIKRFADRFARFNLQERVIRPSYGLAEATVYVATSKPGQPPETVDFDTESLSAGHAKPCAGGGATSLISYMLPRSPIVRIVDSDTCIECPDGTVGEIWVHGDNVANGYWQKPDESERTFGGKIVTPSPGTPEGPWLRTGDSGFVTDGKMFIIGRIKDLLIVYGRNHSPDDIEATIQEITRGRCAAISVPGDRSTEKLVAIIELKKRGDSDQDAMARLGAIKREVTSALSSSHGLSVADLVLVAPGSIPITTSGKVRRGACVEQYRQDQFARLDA

[8] = Luminescent dose response cell-based high throughput screening assay for inhibitors of the Janus kinase 2 mutant JAK2V617F. [Related pubchem assays: 1446 (Primary screen.), 1521 (Confirmation assay.), 1486 (Counter screen.)]; type: functional
[9] = Luminescence Cell-Based Dose Response HTS to Identify Inhibitors of 5'UTR Stem-Loop Driven Prion Protein mRNA Translation in H4 Neuroglioblastoma Cells. [Related pubchem assays: 1827 (Project Summary), 1813 (Primary HTS)]; type: functional
[10] = target: Luciferin 4-monooxygenase (Photinus pyralis, UniProt P08659); assay: firefly luciferase enzyme inhibitors, dose response, biochemical, luminescence (AID 1891)
Luciferin 4-monooxygenase, sequence (P08659 whole entry): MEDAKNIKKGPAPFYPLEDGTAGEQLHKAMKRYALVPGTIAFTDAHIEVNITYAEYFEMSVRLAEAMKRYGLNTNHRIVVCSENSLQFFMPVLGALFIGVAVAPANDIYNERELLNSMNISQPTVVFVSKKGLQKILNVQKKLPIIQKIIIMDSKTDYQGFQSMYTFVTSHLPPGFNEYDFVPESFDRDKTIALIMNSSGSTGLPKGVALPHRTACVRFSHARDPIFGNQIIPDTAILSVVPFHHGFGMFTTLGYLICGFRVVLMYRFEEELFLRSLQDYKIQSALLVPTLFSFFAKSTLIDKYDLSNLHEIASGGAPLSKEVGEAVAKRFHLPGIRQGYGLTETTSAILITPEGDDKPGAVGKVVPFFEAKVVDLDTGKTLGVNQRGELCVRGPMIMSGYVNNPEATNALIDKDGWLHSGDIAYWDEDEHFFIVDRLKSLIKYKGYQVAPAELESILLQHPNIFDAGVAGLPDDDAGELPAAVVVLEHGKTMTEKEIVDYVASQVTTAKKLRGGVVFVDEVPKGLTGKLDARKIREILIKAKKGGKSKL

[11] = Luminescence Cell-Based Dose Confirmation HTS to Identify Inhibitors of Platelet Dense Granule Release. [Related pubchem assays: 1663 (Primary HTS), 1678 (Summary of Project)]; type: functional
[12] = target: T4, Calpain-2 catalytic subunit (Sus scrofa, UniProt P43367); assay: pig calpain II inhibitor potency, dose response, biochemical, fluorogenic peptide substrate (AID 1420); type: functional
T4 sequence (P43367 whole entry): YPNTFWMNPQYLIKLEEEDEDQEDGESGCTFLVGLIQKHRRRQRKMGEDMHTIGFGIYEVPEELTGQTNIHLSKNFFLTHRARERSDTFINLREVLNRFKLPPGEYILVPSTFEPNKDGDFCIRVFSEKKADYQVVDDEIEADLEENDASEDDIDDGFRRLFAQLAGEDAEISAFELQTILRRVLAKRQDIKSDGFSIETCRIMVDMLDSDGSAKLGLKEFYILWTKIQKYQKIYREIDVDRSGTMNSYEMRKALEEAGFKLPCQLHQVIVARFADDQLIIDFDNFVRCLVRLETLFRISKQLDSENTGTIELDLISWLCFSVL

[13] = target: T5, Replicative DNA helicase DnaB (Mycobacterium tuberculosis, UniProt P9WMR3); assay: DnaB intein splicing inhibitors, dose response, biochemical, cell-free fluorescence (AID 449749); type: functional
T5 sequence (P9WMR3 whole entry): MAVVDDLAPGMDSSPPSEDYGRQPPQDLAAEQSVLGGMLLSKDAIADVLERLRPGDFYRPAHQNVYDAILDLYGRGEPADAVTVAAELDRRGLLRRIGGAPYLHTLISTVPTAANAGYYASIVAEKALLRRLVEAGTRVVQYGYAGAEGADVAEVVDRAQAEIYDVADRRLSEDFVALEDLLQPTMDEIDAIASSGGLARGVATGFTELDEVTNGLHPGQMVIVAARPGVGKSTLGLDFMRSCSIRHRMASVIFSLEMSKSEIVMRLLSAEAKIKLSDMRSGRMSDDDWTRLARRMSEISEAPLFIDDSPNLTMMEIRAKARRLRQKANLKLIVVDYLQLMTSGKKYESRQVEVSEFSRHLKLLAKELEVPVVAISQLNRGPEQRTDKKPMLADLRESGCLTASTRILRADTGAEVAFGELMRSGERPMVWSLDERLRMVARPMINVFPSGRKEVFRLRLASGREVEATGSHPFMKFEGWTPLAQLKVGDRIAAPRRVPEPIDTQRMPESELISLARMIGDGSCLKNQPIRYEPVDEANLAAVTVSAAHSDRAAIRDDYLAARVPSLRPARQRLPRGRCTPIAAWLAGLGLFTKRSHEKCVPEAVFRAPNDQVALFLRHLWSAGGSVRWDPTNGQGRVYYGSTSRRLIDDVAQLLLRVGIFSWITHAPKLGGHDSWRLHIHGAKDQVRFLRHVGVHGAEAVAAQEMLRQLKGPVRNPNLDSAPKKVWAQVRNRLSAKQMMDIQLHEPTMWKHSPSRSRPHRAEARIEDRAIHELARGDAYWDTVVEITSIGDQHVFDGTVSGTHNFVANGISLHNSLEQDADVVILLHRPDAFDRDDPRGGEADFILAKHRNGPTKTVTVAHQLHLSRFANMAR

Protein RecA = target: T6, Protein RecA (Mycobacterium tuberculosis, UniProt P9WHJ3); assay: Fluorescence Cell-Free Homogeneous Dose Retest to Identify Inhibitors of RecA-Intein Splicing Activity. [Related pubchem assays (depositor defined):AID2097, AID2223, AID489010, AID492950]; type: functional
T6 sequence (P9WHJ3 whole entry): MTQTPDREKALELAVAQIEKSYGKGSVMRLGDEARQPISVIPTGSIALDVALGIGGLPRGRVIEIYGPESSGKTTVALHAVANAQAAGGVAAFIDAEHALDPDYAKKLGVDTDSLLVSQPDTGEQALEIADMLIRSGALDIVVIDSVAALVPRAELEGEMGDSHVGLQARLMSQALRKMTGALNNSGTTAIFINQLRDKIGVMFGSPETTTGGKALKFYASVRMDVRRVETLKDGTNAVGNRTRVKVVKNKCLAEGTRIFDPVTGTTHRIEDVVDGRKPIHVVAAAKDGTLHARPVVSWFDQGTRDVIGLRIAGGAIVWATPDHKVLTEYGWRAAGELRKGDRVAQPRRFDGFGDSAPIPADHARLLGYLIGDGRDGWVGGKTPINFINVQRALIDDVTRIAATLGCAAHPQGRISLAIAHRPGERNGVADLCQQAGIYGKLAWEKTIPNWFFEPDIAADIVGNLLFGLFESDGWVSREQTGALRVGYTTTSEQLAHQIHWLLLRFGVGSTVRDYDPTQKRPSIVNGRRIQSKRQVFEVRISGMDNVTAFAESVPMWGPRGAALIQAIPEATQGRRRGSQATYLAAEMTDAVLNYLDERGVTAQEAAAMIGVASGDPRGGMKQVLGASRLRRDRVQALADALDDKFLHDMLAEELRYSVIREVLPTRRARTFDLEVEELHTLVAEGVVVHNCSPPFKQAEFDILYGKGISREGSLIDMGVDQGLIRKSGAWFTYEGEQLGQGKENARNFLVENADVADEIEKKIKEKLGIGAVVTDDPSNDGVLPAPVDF

INS1 = assay: beta cell apoptosis inhibitors, cytokine rescue, dose response, luminescence, retest (AID 449756); type: functional, cell-based; conditions: Rattus norvegicus;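 note: cell death triggered by IL-1 beta plus TNF-alpha plus IFN-gamma mixture; protective hits raise ATP signal compared with cytokine alone wells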
[14] = HeLa cell cytotoxicity, dose response, cytotoxicity control for MgcRacGAP inhibitor project (AID 624300); type: functional
[15] = target: T7, Rac GTPase-activating protein 1 (Homo sapiens, UniProt Q9H0H5); assay: MgcRacGAP GTPase-activating activity inhibitors, confirmation, biochemical, ADP Hunter fluorescence, primary and confirmatory (AID 624330); type: functional
T7 sequence (Q9H0H5 whole entry): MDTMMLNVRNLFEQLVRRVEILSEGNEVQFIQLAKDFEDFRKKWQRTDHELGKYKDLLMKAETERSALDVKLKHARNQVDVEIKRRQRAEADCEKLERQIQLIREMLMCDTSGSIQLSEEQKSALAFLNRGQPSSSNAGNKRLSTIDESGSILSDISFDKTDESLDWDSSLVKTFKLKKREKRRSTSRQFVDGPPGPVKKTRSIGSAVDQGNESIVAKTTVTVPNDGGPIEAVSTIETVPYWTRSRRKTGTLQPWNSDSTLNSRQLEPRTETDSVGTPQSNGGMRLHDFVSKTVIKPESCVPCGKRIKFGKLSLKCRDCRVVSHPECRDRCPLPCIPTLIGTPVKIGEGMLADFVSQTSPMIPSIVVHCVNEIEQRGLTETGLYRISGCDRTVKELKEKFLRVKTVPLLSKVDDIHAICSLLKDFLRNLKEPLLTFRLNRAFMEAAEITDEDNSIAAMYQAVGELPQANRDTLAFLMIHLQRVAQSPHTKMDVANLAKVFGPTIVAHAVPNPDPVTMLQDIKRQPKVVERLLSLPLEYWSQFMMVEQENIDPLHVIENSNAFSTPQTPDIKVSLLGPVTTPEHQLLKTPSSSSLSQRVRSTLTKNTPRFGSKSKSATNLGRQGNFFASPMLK

[16] = target: Glyceraldehyde-3-phosphate dehydrogenase (Homo sapiens, UniProt P04406)
Glyceraldehyde-3-phosphate dehydrogenase, sequence (P04406 whole entry): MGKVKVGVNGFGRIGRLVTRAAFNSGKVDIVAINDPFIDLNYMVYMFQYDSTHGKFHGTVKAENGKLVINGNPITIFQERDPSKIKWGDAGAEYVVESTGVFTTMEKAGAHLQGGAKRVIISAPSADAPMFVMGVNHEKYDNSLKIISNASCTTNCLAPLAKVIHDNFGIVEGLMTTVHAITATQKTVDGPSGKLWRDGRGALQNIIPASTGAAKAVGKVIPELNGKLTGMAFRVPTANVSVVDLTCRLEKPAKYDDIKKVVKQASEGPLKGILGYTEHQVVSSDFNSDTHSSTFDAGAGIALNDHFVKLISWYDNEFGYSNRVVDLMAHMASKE

Bcl-2-related protein A1 [17] = target: T8, Bcl-2-related protein A1 (Mus musculus, UniProt Q07440); assay: Bfl-1 inhibitors blocking BH3 peptide binding, confirmation, biochemical, TR-FRET, mouse Bfl-1 (AID 621);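 note: TR-FRET binding of GST-Bfl-1 to FITC-labelled Bid peptide via terbium antibody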
T8 sequence (Q07440 whole entry): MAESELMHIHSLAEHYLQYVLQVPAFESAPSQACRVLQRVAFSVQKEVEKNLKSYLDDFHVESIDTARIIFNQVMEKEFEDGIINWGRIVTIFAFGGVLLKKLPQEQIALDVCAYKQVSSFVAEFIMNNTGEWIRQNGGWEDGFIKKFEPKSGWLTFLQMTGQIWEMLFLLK

Bcl-2-related protein A1 [18] = target: T8, Bcl-2-related protein A1; assay: Bfl-1 binding inhibitors, SAR follow-up, biochemical, fluorescence polarization (AID 1070)
Cytochrome P450 2C19 = Cytochrome P450 2C19 (Homo sapiens, UniProt P33261); assay: qHTS Assay for Inhibitors and Substrates of Cytochrome P450 2C19. [Related pubchem assays: 410 ]; type: ADME; conditions: read-out: Potency
Cytochrome P450 2C19, sequence (P33261 whole entry): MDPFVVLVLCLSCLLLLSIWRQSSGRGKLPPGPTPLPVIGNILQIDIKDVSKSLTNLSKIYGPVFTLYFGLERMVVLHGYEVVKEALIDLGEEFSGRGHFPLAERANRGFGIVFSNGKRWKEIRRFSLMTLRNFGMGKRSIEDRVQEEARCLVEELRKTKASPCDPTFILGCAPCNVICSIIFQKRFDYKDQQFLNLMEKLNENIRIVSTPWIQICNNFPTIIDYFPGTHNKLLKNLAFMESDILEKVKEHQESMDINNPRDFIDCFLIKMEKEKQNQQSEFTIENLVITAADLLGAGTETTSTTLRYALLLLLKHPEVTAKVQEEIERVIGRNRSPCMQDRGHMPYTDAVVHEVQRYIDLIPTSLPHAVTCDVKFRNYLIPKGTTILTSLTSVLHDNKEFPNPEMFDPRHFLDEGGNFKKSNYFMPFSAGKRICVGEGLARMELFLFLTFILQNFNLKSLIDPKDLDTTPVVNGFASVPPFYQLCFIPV

Cytochrome P450 3A4 = Cytochrome P450 3A4 (Homo sapiens, UniProt P08684); conditions: Potency;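 note: confirmatory qHTS run detecting inhibitors and substrates of CYP3A4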
Cytochrome P450 3A4, sequence (P08684 whole entry): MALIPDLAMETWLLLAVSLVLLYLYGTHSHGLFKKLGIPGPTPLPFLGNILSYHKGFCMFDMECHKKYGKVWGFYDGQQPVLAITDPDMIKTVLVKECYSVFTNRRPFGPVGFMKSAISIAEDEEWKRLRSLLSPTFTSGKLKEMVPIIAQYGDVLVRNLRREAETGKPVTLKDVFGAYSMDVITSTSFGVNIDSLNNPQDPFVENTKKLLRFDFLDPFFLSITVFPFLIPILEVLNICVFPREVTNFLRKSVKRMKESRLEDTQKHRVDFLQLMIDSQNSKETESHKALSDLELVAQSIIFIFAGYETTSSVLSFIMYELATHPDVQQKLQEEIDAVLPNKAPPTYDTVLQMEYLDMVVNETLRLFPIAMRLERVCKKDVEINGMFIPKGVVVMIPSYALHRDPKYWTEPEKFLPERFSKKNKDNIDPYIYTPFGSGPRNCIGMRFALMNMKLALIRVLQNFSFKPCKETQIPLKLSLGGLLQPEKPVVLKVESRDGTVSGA

Danio rerio = assay: In Vivo Angiogenesis Dose-Response Confirmation. [Related pubchem assays: 732 (Assay preceding this confirmatory assay.)]; type: functional, organism-based
[19] = target: Voltage-gated inwardly rectifying potassium channel KCNH2 (Homo sapiens, UniProt Q12809); conditions: Potency;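 note: confirmatory quantitative high-throughput screen measuring inhibition of hERG channel activity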
[20] = target: Aryl hydrocarbon receptor (Homo sapiens, UniProt P35869); assay: Luminescence-based cell-based high throughput dose response assay for activators of the Aryl Hydrocarbon Receptor (AHR). [Related pubchem assays: 2796 (Primary screen (AHR activators in singlicate)), 2845 (Confirmation screen (AHR activators in triplicate)), 434939 (Counterscreen (PXR activators in triplicate)), 2804 (Summary (AHR activators))]; type: ADME
Aryl hydrocarbon receptor, sequence (P35869 whole entry): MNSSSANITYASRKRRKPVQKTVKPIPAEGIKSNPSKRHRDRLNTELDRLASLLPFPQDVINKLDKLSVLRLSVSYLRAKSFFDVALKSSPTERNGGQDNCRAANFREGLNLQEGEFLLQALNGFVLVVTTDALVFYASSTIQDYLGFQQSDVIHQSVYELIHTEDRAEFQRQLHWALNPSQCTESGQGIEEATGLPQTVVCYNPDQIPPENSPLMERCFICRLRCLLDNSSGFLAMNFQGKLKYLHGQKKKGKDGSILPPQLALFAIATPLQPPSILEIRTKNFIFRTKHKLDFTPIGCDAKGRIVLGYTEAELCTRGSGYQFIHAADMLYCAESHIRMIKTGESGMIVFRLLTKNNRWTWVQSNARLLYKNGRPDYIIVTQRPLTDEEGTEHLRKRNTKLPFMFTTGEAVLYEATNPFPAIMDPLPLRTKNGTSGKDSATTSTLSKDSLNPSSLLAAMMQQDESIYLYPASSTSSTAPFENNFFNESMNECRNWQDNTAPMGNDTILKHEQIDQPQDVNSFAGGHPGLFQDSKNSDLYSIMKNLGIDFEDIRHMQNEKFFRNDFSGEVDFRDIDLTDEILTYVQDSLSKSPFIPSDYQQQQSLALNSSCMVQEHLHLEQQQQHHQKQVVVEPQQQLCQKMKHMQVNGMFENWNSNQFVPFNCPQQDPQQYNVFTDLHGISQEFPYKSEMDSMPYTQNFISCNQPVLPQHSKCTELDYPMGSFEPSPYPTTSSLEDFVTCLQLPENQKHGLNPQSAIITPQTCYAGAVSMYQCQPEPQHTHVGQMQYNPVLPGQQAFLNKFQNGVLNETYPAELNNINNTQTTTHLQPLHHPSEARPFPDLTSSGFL

Dual specificity protein phosphatase 6, sequence (Q64346 whole entry): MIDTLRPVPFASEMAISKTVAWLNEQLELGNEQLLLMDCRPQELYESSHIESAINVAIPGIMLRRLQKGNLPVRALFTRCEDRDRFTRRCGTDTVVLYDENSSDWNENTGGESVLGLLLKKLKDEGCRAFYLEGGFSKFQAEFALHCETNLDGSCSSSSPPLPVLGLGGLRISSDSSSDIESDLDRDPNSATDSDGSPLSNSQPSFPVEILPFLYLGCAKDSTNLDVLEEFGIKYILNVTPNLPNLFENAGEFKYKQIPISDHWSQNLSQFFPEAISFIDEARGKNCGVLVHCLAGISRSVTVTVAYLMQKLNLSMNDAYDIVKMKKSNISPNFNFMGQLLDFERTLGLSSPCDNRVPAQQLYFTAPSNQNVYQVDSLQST

CCOC(=O)c1cc2sccc2n1Cc1ccccc1
IC50 [1]: > 100 µM (not active)

COC(=O)CCC(=O)OC1(C)C(=O)C=C2C=C(C3CC3)N(CC3CC3)C=C2C1=O (configuration not stated)
IC50 [2]: 63.6 µM (not active)
IC50 [3]: 17 µM (not active)

CCn1c(CSc2nccn2C)nc2cc(C(=O)O)ccc21
IC50 (Protein Rev): 19.7 µM (not active)
IC50 [4]: 14.9 µM (inactive)
IC50 (14-3-3 protein gamma): > 50 µM (not active)
IC50 [5]: 62.1 µM (inactive)
IC50 [6]: 36.7 µM (inactive)
AC50 [7]: > 100 µM (inactive)

O=C1/C(=N\c2ccc(O)cc2)C=C(O)c2ccccc21
IC50 [8]: 2.02 µM (active)
EC50 [9]: > 120 µM (not active)
EC50 [10]: 3.81 µM (active)
EC50 [11]: 4.34 µM (active)
IC50 [12]: 5.1 µM (not active)
AC50 [13]: 3.88 µM (active)
EC50 (Protein RecA): 3.57 µM (active)
AC50 (INS1): 6.8 µM (active)
CC50 [14]: 100 µM (active)
IC50 [15]: 23.7 µM (active)

O=C1C(Cl)=C(N2CCN(c3ccccc3)CC2)C(=O)N1c1ccc(Cl)c(Cl)c1
IC50 [16]: > 100 µM (not active)
IC50 (Bcl-2-related protein A1 [17]): 4.13 µM (active)
IC50 (Bcl-2-related protein A1 [18]): 4.95 µM (active)

COC(=O)NC(c1ccccc1)C(C(=O)OC)C(=O)OC (configuration not stated)
AC50 (Cytochrome P450 2C19): 5.01 µM (inconclusive)
AC50 (Cytochrome P450 3A4): 3.16 µM (inconclusive)

CN(C)c1ccc(/C=C2\C(=O)Nc3ccccc32)cc1
IC50 (Danio rerio): > 100 µM (not active)
AC50 [19]: 14.1 µM (inconclusive)

COCC(=O)Nc1nnc(-c2cccs2)s1
EC50 [20]: 6.26 µM (active)
